Results from patent US20210172961A1, “METHODS FOR IDENTIFYING RNA EDITING-DERIVED EPITOPES THAT ELICIT IMMUNE RESPONSES IN CANCER” (Board of Regents, The University of Texas System, priority 2018, published 2021).

How the values were obtained:
Format in all cases: cell-based, human
[1] = tested on: T2 cells; experiment: Caspase3 based CTL killing assay, TIL2661 against peptide-pulsed T2 cells; conditions: T2 pulsed with 10 μM peptide, anti-caspase3 staining, flow cytometry
From the text: T cells play a primary role in adaptive immunity against infections and tumorigenesis, and therapies based on manipulating T-cell activation have shown promise in cancer treatment. To determine the function of CCNI-ED specific T cells in mediating tumor cell killing, the HLA-A*02:01 expressing lymphoblast cell line T2, which is lacking expression of the transporter associated with antigen processing (TAP) and thus incapable of presenting endogenous peptides, were employed. The CCNI-WT or CCNI-ED peptide were pulsed onto T2 cells, co-cultured with TIL2661 in different ratios, and then measured T-cell mediated target cell death based on anti-caspase3 staining and subsequent flow cytometric quantification. […]
T cell-mediated cell killing was analyzed using a flow cytometry-based method by detecting T cell-induced caspase-3 cleavage in target cells. […] T cell-mediated caspase-3 cleavage was measured by intracellular staining with Cytofix/Cytoperm reagent (BD Biosciences, 554772) and PE conjugated anti-cleaved caspase-3 antibody (BD Bioscience, 550821) and the number of pre-apoptotic cells were determined by flow cytometry.

[2] = tested on: melanoma TILs; experiment: IFNγ ELISPOT of melanoma TILs incubated with synthetic peptide; conditions: for IFNγ production by TILs (ELISPOT response to peptide): 15 HLA-A*02:01-expressing melanoma TILs, peptide 10 μM
From the text: To examine whether the detected HLA ligands are recognized by tumor-infiltrating lymphocytes (TILs) and if these TILs can kill cells presenting ED. For this analysis, matched autologous pairs of melanoma TILs and tumor cell lines were used. CCNI-ED peptide and its WT counterpart were synthesized and evaluated for their ability to activate TILs generated from human melanoma tumours.
Melanoma TILs were generated as described before. Briefly, melanoma tumor samples were either cut into 1-3 mm^2 fragments and put in culture in a tissue-treated 24-well plate, in complete TIL media (TIL-CM) consisting of RPMI 1640 (Gibco, 61871), 10% of human AB serum (GEMINI, 100-512), 0.1% of 2-mercaptoethanol (Gibco, 21985023), 1% of HEPES (Corning, 25-060), 1% sodium pyruvate (Invitrogen/Life Technologies, 11360-070), 1% of Glutomax (Gibco, 35050061), 1% PenStrep (ThermoFisher, 15070063) plus 6000 U/mL of human IL-2 or put in culture after the tumor samples were enzymatically digested by collagenase for 1 h at 37° C. followed by centrifugation using a multi-layer Ficoll gradient (100% and 75%, Ficoll-Paque PLUS, GE, 17-1440-02) where the 100% layer was collected for TILs. Every 3 days, half of the medium was replaced with fresh medium and the TIL culture was split to keep the cells at a density of 1×10^6/mL. TILs were expanded between 2 to 5 weeks, depending on the TIL lines. To increase the number of TILs available for experiments, the lines were further expanded using the rapid expansion protocol (REP). In brief, 1.5×10^5 primary TILs generated above were cultured with 27×10^6 feeder cells together with 0.6 mg soluble anti-CD3 monoclonal antibody (OKT3 clone, Muronomab—Abbott Labs). The feeder cells are peripheral blood mononuclear (PBMC) cells mixed from at least 5 healthy donors and irradiated at 5,000 cGy for 20 minutes prior to culture in order to prevent their proliferation during the REP. 6,000 U/mL IL-2 was added at the second day and half of the medium was recovered and replaced with fresh medium containing 50% of TIL-CM and 50% of AIM-V medium (Invitrogen, 12055-083) every 3 days to keep TIL density between 0.5-2×10^6/mL. The cultured TILs were harvested at day 14 for functional analysis or frozen in human serum with 10% DMSO (Thermo Fisher, 67-68-5). Autologous tumor cell lines were also established from the enzymatically digested tumours followed by the multi-layer Ficoll gradient where the 75% layer was collected and put in culture in complete tumor media (RPMI 1640, Gibco, 61871) containing 10% FBS, 1% HEPES (Corning, 25-060), 1% sodium pyruvate (Invitrogen/Life Technologies, 11360-070), 1% insulin/selenium/transferrin (Gibco, 51300), 0.2% MycoZap-PR (Lonza, VZA-2011). All tumor samples were HLA typed at the HLA-A locus in the MD Anderson HLA Typing Laboratory. […]

[3] = tested on: 293-A2 cells; experiment: IFNγ ELISPOT of Ted10 with peptide-pulsed or CCNI-transfected 293-A2 cells; conditions: 293-A2 cells pulsed with peptide
Description: To investigate this relationship on cellular level, CCNI-ED10-specific effector T cells (Ted10) were generated from HLA-A*02:01-expressing normal peripheral blood mononuclear cells (PBMCs) using an established method.
IFNγ Enzyme-linked immunospot (ELISPOT) assay was performed to detect T-cell responses. MultiScreen 96 well filter plates (Millipore, MAHAS4510) were coated over night at 4° C. with 75 μL/well of […] anti-human IFNγ capture antibody (Mabtech AB, 3420-3-1000). TILs or CCNI-ED specific T cells (Ted10) were thawed and cultured with 1000U of human IL-2/mL overnight. On the next day, before performing ELISPOT assay, T cells were starved with IL-2 free medium for 6 hours. […] After 18 hours of cultivation at 37° C. and 5% CO2, the plates were incubated with 1 ng/mL of Biotinylated anti-human IFNγ monoclonal antibody (Mabtech, 3420-6-1000) for one hour, stained with ExtrAvidine®-Alkaline phosphatase (Sigma-Aldrich, E2636) and IFNγ positive spots were detected with BCIP/NBT Membrane Alkaline Phosphatase Substrate (Sigma, 11697471001). Plates were scanned and counted using the ImmunoSpot® ELISPOT analyzer (Shaker Heights, Ohio) to determine the number of spots/well. […]

SLLDRFLATV (listed as Homo sapiens) [CCNI-WT10, non-edited wildtype counterpart of CCNI-ED10, reference compound]
TIL2661 mediated killing of peptide-pulsed T2 cells [1]: CCNI-ED10, rather than CCNI-WT10, to T2 cells facilitated target killing | IFNγ production by TILs (ELISPOT response to peptide) ([2]; triplicates): none of the TILs responded

LLDGFLATV (listed as Homo sapiens) [CCNI-ED9, RNA editing-derived HLA peptide, editing site CCNI R75G]
IFNγ ELISPOT response of TIL to peptide ([2]; TIL2576, parallel assay with the same TILs): weakly reacted

SLLDGFLATV (listed as Homo sapiens) [CCNI-ED10, RNA editing-derived HLA peptide, editing site CCNI R75G]
TIL2661 mediated killing of peptide-pulsed T2 cells [1]: facilitated target killing | IFNγ production by Ted10 (ELISPOT) [3]: potently activated | IFNγ production by TILs (ELISPOT response to peptide) ([2]; triplicates): strongly responded | number of HLA-A*02:01-expressing TILs that responded (TIL2678, TIL2661, TIL2559) ([2]; IFNγ ELISPOT, triplicates): 3 out of 15
